Data from patent publication US10214522B2, “Anti-alphavbeta1 integrin inhibitors and methods of use” (The Regents of the University of California, priority 2015, dated 2019).

molecular target: T1, αvβ1 integrin (UniProt G3HZ55+P06756); assay: Cell Adhesion Assay (integrin-specific adhesion, αvβ1); type: cell-based; details: CHO cells transfected with human αv adhering to 0.3 μg/ml fibronectin; read-out: Cell Adhesion Assay IC50 range
T1 construct: expressed in transfected cells; host or cells: CHO cells (elsewhere described as α5-deficient CHO) transfected with human αv
Description: The effects of compounds on cell adhesion mediated by […], α8β1, αvβ1, αvβ3, αvβ5, αvβ6, and αvβ8 are measured using pairs of cell lines and ligands selected to isolate the effect of each individual integrin. For α5β1 we utilize the colon carcinoma cell line, SW480, plated on 0.3 μg/ml fibronectin, for α8β1, we utilize SW480 cells transfected with human α8 adhering to 1 μg/ml recombinant TGFβ1 LAP [5], for αvβ1 we use Chinese Hamster Ovary Cells (CHO cells) transfected with human αv adhering to 0.3 μg/ml fibronectin [6], for αvβ3 we use SW480 cells transfected with human β3, for αvβ5 we use wild type SW480 cells adhering to 0.1 μg/ml vitronectin. For αvβ6 we use SW480 cells transfected with human β6 adhering to 0.01 μg/ml recombinant human TGFβ1 LAP. For αvβ8 we use glioma cell line (SNB19) expressing β8 adhering to 1 μg/ml recombinant human TGFβ1 LAP.
(§1) The effects of the compound on cell adhesion mediated by αvβ1 integrin were measured using Chinese Hamster Ovary Cells (CHO cells) transfected with human αv adhering to 0.3 μg/ml fibronectin. In every case, we confirmed that adhesion could be inhibited by blocking antibodies to αv and β1. Cells were resuspended in DMEM for 30 min at 4° C. with 10-fold dilutions of the compound with a starting concentration of 10 μM. Each sample was then added to triplicate wells of a 96-well plate which had been coated overnight at 4° C. with the relevant ligand, washed, blocked by 1 hr incubation with 1% BSA, and washed again. Cells were allowed to attach for 30-60 min at 37° C. After incubation, non-adherent cells were removed by discarding the media and spinning the plate top-side down at 500 rpm for 5 minutes. Cells were then fixed and stained with 40 ul of 0.5% Crystal violet, 1% Formaldehyde, 20% Methanol for 30 minutes and lysed with 2% Trition-X. Absorbance was measured at 595 nm in a Microplate reader. For all assays, concentration-response curves were constructed by non-linear regression analysis and IC50 values using Graphpad PRISM (ver 6.0).
as §1, with “Integrin specific” for “effects of the compound on cell”, “assays” for “mediated by αvβ1 integrin”, “In every case, we confirmed that adhesion could be inhibited by blocking antibodies to αv and β1.” left out

T1 sequence (P06756 31-889 limits assumed): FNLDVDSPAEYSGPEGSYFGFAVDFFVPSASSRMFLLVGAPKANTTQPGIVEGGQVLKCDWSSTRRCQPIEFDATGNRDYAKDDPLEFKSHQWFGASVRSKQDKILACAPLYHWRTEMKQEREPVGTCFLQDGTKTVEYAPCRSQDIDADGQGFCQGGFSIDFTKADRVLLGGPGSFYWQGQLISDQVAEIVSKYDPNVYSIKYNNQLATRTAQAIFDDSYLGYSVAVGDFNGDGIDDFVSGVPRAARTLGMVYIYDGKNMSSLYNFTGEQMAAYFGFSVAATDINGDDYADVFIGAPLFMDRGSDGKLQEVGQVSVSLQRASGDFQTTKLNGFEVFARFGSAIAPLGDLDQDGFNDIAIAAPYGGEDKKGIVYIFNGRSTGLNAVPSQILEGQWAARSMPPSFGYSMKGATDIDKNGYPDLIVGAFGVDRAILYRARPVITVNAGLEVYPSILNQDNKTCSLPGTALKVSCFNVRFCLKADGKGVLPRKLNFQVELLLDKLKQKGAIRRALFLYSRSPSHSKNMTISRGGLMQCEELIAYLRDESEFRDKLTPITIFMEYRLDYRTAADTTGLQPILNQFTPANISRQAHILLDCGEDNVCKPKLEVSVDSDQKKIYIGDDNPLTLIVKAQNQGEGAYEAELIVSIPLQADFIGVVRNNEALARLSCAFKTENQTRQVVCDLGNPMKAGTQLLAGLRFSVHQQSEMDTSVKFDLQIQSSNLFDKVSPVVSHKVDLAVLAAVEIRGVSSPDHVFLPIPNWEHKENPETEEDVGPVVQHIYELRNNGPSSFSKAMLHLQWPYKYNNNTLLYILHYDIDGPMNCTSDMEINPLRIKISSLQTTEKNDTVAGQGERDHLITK
T1 sequence (P06756 891-1048 limits assumed): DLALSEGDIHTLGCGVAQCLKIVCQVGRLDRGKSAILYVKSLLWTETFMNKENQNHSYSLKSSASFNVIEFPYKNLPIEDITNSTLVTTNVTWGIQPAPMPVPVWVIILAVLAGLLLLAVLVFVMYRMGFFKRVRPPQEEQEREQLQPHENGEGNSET
T1 sequence (G3HZ55 21-798): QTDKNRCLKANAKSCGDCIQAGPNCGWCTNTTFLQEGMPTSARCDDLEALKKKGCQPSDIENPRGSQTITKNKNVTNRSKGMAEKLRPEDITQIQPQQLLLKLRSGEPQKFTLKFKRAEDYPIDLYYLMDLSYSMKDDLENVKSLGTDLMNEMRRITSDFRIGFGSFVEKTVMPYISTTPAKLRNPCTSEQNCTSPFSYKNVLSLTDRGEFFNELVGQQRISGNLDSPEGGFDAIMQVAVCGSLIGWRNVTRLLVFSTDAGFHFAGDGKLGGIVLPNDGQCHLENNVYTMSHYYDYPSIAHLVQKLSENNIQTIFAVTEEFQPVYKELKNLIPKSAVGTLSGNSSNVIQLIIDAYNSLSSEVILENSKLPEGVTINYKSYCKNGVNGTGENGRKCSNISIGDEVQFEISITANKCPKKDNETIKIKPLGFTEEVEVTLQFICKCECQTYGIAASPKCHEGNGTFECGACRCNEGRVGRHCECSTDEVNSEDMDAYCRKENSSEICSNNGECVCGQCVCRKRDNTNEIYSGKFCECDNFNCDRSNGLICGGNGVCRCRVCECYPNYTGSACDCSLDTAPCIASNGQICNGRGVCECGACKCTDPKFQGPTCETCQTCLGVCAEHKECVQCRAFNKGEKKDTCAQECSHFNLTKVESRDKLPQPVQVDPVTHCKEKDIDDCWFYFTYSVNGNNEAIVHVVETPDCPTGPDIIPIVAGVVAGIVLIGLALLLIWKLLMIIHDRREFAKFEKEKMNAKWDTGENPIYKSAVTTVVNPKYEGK

Row | Structure (SMILES) | IC50 [nM]
1 | Cc1cccc(Cl)c1C(=O)N[C@@H](Cc1ccc(NC(=O)CCCNc2ccccn2)cc1)C(=O)O [HIJ-888, (S)-2-(2-chloro-6-methylbenzamido)-3-(4-(4-(pyridin-2-ylamino)butanamido)phenyl)propanoic acid] | 100 to 10000
2 | CSc1ccccc1C(=O)N[C@@H](Cc1ccc(NC(=O)CCCNc2ccccn2)cc1)C(=O)O [HIJ-891, (S)-2-(2-(methylthio)benzamido)-3-(4-(4-(pyridin-2-ylamino)butanamido)phenyl)propanoic acid] | 100 to 10000
3 | O=C(CCCNc1ccccn1)Nc1ccc(C[C@H](NC(=O)c2cccc(-c3ccccc3)c2)C(=O)O)cc1 [HIJ-892, (S)-2-([1,1′-biphenyl]-3-carboxamido)-3-(4-(4-(pyridin-2-ylamino)butanamido)phenyl)propanoic acid] | 100 to 10000
4 | Cc1ccnc(NCCCC(=O)Nc2ccc(C[C@H](NC(=O)c3c(Cl)cccc3Cl)C(=O)O)cc2)c1 [HU-899] | < 100
5 | N=C(N)NCCc1cn(-c2ccc(C[C@H](NC(=O)c3c(Cl)cccc3Cl)C(=O)O)cc2)nn1 [JM-39, (S)-2-(2,6-dichlorobenzamido)-3-(4-(4-(2-guanidinoethyl)-1H-1,2,3-triazol-1-yl)phenyl)propanoic acid] | 100 to 10000
6 | O=C(CCCCNC1=NCCN1)Nc1ccc(C[C@H](NC(=O)c2c(Cl)cccc2Cl)C(=O)O)cc1 [JM-61] | 100 to 10000
7 | N=C(N)NCCCc1coc(-c2ccc(C[C@H](NC(=O)c3c(Cl)cccc3Cl)C(=O)O)cc2)n1 [JM-185] | 100 to 10000
8 | O=C(CCCc1ccc2c(n1)NCCC2)Nc1ccc(C[C@H](NC(=O)c2c(Cl)cccc2Cl)C(=O)O)cc1 [YT-101] | 100 to 10000
9 | N=C(N)NCCCC(=O)Nc1ccc(C[C@H](NC(=O)c2c(Cl)cccc2Cl)C(=O)O)cc1 [YT-107] | 100 to 10000
10 | O=C(CCCCc1ccc2c(n1)NCCC2)Nc1ccc(C[C@H](NC(=O)c2c(Cl)cccc2Cl)C(=O)O)cc1 [YT-115] | 100 to 10000
11 | O=C(CCc1ccc2c(n1)NCCC2)Nc1ccc(C[C@H](NC(=O)c2c(Cl)cccc2Cl)C(=O)O)cc1 [YT-119] | < 100

The remaining lines, values ahead:

Row | IC50 [nM] | Structure (SMILES)
12 | 100 to 10000 | COc1cccc(OC)c1C(=O)N[C@@H](Cc1ccc(NC(=O)CCCNc2ccccn2)cc1)C(=O)O [HIJ-886, (S)-2-(2,6-dimethoxybenzamido)-3-(4-(4-(pyridin-2-ylamino)butanamido)phenyl)propanoic acid]
13 | < 100 | O=C(CCCNc1ccccn1)Nc1ccc(C[C@H](NC(=O)c2c(F)cccc2Br)C(=O)O)cc1 [HIJ-889, (S)-2-(2-bromo-6-fluorobenzamido)-3-(4-(4-(pyridin-2-ylamino)butanamido)phenyl)propanoic acid]
14 | < 100 | Cc1cccc(C)c1C(=O)N[C@@H](Cc1ccc(NC(=O)CCCNc2ccccn2)cc1)C(=O)O [HIJ-890, (S)-2-(2,6-dimethylbenzamido)-3-(4-(4-(pyridin-2-ylamino)butanamido)phenyl)propanoic acid]
15 | < 100 | N=C(N)NCCCn1cc(-c2ccc(C[C@H](NC(=O)c3c(Cl)cccc3Cl)C(=O)O)cc2)nn1 [JM-141]
16 | 100 to 10000 | N=C(N)Nc1ccc2c(c1)C(=O)N(c1ccc(C[C@H](NC(=O)c3c(Cl)cccc3Cl)C(=O)O)cc1)CC2 [JM-175]
17 | 100 to 10000 | N=C(N)NCCCc1csc(-c2ccc(C[C@H](NC(=O)c3c(Cl)cccc3Cl)C(=O)O)cc2)n1 [JM-192]
18 | 100 to 10000 | O=C(N[C@@H](Cc1ccc(-n2cc(CNc3ccccn3)nn2)cc1)C(=O)O)c1c(Cl)cccc1Cl [JM-230]
19 | 100 to 10000 | O=C(CCCCNc1ccccn1)Nc1ccc(C[C@H](NC(=O)c2c(Cl)cccc2Cl)C(=O)O)cc1 [YT-43]
20 | < 100 | O=C(CCCNc1ccccn1)Nc1ccc(C[C@H](NC(=O)c2c(Cl)cccc2Cl)C(=O)O)cc1 [YT-103, (S)-2-(2,6-dichlorobenzamido)-3-(4-(4-(pyridin-2-ylamino)butanamido)phenyl)propanoic acid]
